The record followed here is US20150044136A1, “Ophthalmological treatment for michobial infections” (priority 2013, published 2015).

The test system of this series is L929 cells. Kind of series: Cytotoxicity evaluation, agar overlay, ASTM F895-84 / ISO 10993-5. It counts as cell-based. On the set-up: key to Zone Description Following 48 Hour Incubation (size of zone of lysis): 0: No detectable zone around or under specimen; 1: Zone limited to area under specimen; 2: Zone extends less than 0.5 cm beyond specimen; 3: Zone extends 0.5 to 1.0 cm beyond specimen; 4: Zone extends greater than 1.0 cm beyond specimen but does not involve entire dish; 5: Zone involves entire dish. To be noted: L929 monolayer, replicate wells. Here is the method: ASTM F895-84 Test Method was Utilized.
The Sample was analyzed as described in ASTM F895-84 and ISO 10993-5. Monolayers of L929 cells were grown in six 150 mm cell culture plates (Corning, USA). Following 24 hours to cell passage, the plates were over-layed with agar supplemented dMEM/FBS media as described by the ASTM method. One hundred milligrams of the provided samples was added to the center of four of the over-layed wells. One well was left undisturbed as this served as negative control. An additional well was inoculated with a 2 cm^2 piece of latex rubber. The cells were then incubated in 5% carbon dioxide at 36.5° C.±1 for 24 hours. The plates and cells were evaluated macro and microscopically for signs of malformation, degeneration, sloughing, or lysis of the cells within the zone directly beneath and surrounding the discs. Cells were then re-incubated for an additional 24 hours at the conditions described above and evaluated again. The size of the zone surrounding the inoculated area was evaluated for signs of cell growth inhibition and/cell lysis.
Table 3 contains the numerical values describing the size of zone of lysis surrounding the inoculums as per the ASTM standards. Table 4 contains the relative numerical value describing the number of cells affected within the zone of inhibition or toxicity. Each sample observed is assigned a numerical value based on cellular degradation and/or cell death.
Briefly, number 0=unchanged/no evident cytotoxicity; 5=complete monolayer destruction and severe cytotoxicity. The ASTM and ISO 10993-5 consider a scoring of 3 or higher as toxic.

Regarding `Oc1ccccc1` [(+) Control, Phenol], for the setting “24 Hour Incubation”, the “Cell Description Following 24 Hour Incubation (condition of cells within the zone of lysis)” value is 5 (Greater than 80% of zone affected of zone affected) and the “Zone Description Following 24 Hour Incubation (size of zone of lysis)” value is 4 (Zone extends greater than 1.0 cm beyond specimen but does not involve entire dish). Under “48 Hour Incubation”, the “Cell Description Following 48 Hour Incubation (condition of cells within the zone of lysis)” value was 5 (Greater than 80% of zone affected of zone affected) and the “Zone Description Following 48 Hour Incubation (size of zone of lysis)” value was determined as 5.
